Measured values published in article PMC10877733, “Discovery and Characterization of VU0542270, the First Selective Inhibitor of Vascular Kir6.1/SUR2B KATP Channels” (Molecular Pharmacology, 2024).
Read-outs that look alike come from different tables or passages of the source.

What was measured:
Kir6.1/SUR2B = biological target: T1, Kir6.1/SUR2B (Homo sapiens, UniProt O60706); assay: Thallium flux assay of Kir6.1/SUR2B in HEK293 cells; assay type: cell-based; settings: for Kir6.1/SUR2B inhibition, SAR in words: modification of the right side thiophene
T1 construct: expressed in transfected cells; also transiently transfected HEK293T
From the text: The pcDNA3.1-SUR2B plasmid was generously provided by Dr. Colin Nichols (Washington University). […] Stably transfected tetracycline-regulated expression human embryonic kidney-293 (T-Rex-HEK293) cells expressing both plasmids were generated by cotransfecting cells with Lipofectamine LTX followed by antibiotic selection and clonal selection using the thallium flux assay described below. […] The cell culture media contained Dulbecco's modified Eagle's medium (Gibco, 11965-092) supplied with heat-inactivated FBS (bio-techne, Minneapolis, MN […],10%), Blasticidine HCl (Gibco, A11139-03, 10 ug/mL), Penicillin-Streptomycin (Gibco, 15140-122, 2 mM), G418 Sulfate (CORNING, Corning, NY, 30-234-CR, 1 mg/mL), and Hygromycin B (Invitrogen, Carlsbad, CA, 10687-010, 250 ug/mL). For selectivity assays, HEK293T cells were cotransfected with Kir6.x and SURX with Lipofectamine LTX and incubated for 48 hours before thallium flux assays. […] [[…] et al., 2019]). […] Dye-loaded cells were washed with assay buffer and transferred to a Panoptic Kinetic Imaging Plate Reader (Wavefront Bioscience, Franklin, TN). Control and test compound treatments were for 4 minutes prior to adding 0.5 mM chloride-free thallium stimulus buffer (Ion Bioscience) to initiate thallium flux. […] Selectivity assays against other Kir channels were performed essentially as described previously ([[…] et al., 2018]; [[…] al., 2022]). […] Data were acquired using Panoptic Software, Waveguide (Wavefront Biosciences). Raw fluorescence values were imported for analysis into custom software (VICB, Vanderbilt University). Fluorescence versus time values for each well were normalized to the initial fluorescence value [F/F0]. […] CRC data were plotted in GraphPad Prism (GraphPad Software, San Diego, CA) and fitted with a four-parameter logistic model to determine IC50 values for rank-ordering hit potency.

[1] = tested on: isolated mouse ductus arteriosus vessels; assay: Pressure myography of isolated ductus arteriosus vessels; settings: term gestation mouse DA
Procedure: CD-1 mice were maintained at Vanderbilt University Medical Center in accordance with protocols approved by the Institutional Animal Care and Use Committee. Timed matings were performed to produce offspring at specific stages of development. The presence of a vaginal plug was designated as embryonic day 1.
Term-gestation (embryonic day 19) fetal mouse DAs were isolated and mounted on glass pipet tips in microvessel perfusion chambers as previously reported ([Hooper et al., 2016]). Deoxygenated Krebs buffer was warmed to 37°C and circulated throughout the chamber. Vessels were pressurized in a stepwise manner to physiologic neonatal mouse mean arterial pressure (20 mmHg) and then challenged with 50 mM KCl to test reactivity. […] For dose-response studies, vessels were first dilated by circulating Krebs buffer bubbled with 95% nitrogen, 5% CO2 to mimic the hypoxic conditions of the womb. […] Following each dose, lumen diameters were allowed to plateau (approximately 20 minutes) before the next dose was added. Continuous lumen diameter measurements were recorded using a digital image capture system (IonOptix). An N of >6 vessels from at least three different litters was used for each experimental condition. Changes in lumen diameter are represented as the percent change in diameter compared with the baseline lumen diameter of vessels prior to drug exposure. […] Values represent mean ± S.D.

Kir6.2/SUR1 = biological target: T2, Kir6.2/SUR1 (Homo sapiens, UniProt Q09428); assay: Thallium flux assay of Kir6.2/SUR1 in HEK293 cells; assay type: cell-based; settings: T-Rex-HEK293-Kir6.2/SUR1 cells
T2 construct: expressed in transfected cells; also transiently transfected HEK293T
Procedure: The pcDNA3.1-SUR2B plasmid was generously provided by Dr. Colin Nichols (Washington University). The pcDNA5/TO-Kir6.1 plasmid was synthesized by GenScript. […] For selectivity assays, HEK293T cells were cotransfected with Kir6.x and SURX with Lipofectamine LTX and incubated for 48 hours before thallium flux assays.
Stable T-Rex-HEK293-Kir6.1/SUR2B cells or transiently transfected HEK293T cells were plated in polyamine-coated, clear-bottomed, black-walled 384-well plates and were cultured (37°C/5% CO2) overnight in Dulbecco’s modified Eagle’s medium (Gibco, Carlsbad, CA, 11995-065) containing 10% FBS (2 mM Penicillin-Streptomycin). The following day, cells were washed with assay buffer (i.e., Hanks’ balanced salt solution/20 mM HEPES) and loaded for 1 hour with thallium sensor dye Brilliant Thallium (Ion Bioscience, San Marcos, TX) at room temperature. Dye-loaded cells were washed with assay buffer and transferred to a Panoptic Kinetic Imaging Plate Reader (Wavefront Bioscience, Franklin, TN). Control and test compound treatments were for 4 minutes prior to adding 0.5 mM chloride-free thallium stimulus buffer (Ion Bioscience) to initiate thallium flux.

[2] = pinacidil-activated, read-out: Kir6.1/SUR2B IC50

T1 sequence (O60706 1-1549 isoform O60706-2, species assumed): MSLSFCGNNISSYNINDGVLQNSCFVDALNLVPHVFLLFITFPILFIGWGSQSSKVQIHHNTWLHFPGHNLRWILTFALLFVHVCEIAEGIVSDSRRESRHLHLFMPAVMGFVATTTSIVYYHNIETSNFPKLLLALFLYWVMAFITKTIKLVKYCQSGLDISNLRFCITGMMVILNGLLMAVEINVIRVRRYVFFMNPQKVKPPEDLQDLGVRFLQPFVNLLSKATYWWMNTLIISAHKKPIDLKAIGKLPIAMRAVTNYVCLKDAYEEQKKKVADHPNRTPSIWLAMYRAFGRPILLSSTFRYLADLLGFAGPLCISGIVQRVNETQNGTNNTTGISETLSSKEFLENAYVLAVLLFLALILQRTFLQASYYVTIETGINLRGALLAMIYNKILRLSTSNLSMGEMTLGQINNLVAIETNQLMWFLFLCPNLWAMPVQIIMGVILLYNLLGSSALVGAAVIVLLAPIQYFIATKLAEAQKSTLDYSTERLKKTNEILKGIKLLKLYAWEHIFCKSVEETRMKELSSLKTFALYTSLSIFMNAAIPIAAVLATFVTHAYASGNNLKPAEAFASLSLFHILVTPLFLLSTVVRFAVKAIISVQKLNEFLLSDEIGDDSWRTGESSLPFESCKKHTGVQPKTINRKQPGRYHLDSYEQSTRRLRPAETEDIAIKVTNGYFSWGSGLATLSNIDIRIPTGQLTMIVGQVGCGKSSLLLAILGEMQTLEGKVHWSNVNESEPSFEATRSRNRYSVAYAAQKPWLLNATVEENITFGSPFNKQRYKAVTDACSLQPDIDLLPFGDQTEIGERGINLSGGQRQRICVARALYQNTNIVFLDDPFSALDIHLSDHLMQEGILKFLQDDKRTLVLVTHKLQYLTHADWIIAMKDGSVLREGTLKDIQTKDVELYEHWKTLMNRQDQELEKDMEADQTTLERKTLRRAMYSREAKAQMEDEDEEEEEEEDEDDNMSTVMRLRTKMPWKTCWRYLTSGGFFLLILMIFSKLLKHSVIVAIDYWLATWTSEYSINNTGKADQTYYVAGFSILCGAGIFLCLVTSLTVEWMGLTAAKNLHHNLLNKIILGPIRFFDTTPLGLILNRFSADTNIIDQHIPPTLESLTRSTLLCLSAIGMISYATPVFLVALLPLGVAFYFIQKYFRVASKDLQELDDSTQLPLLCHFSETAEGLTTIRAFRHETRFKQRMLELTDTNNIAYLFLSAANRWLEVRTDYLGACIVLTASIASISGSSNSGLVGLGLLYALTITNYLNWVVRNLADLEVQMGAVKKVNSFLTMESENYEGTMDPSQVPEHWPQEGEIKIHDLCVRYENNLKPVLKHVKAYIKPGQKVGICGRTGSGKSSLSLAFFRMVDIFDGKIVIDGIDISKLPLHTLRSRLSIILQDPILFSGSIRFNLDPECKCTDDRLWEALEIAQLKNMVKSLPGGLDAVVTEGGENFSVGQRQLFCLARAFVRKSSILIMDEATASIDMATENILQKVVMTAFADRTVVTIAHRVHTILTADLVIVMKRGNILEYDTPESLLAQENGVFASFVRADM
T1 sequence (Q15842 whole entry partner, species assumed): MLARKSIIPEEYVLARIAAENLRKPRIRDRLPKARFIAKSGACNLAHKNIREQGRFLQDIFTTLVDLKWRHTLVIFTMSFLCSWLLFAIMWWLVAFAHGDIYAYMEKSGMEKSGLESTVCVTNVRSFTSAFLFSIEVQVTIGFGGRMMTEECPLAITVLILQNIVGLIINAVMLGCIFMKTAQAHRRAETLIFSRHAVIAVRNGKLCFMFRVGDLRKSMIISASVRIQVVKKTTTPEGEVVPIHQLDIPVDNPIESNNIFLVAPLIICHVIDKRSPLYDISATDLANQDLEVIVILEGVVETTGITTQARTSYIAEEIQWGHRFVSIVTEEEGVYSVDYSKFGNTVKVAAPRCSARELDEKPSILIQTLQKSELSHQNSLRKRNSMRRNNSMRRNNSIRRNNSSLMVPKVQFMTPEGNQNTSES
T2 sequence (Q09428 whole entry, species assumed): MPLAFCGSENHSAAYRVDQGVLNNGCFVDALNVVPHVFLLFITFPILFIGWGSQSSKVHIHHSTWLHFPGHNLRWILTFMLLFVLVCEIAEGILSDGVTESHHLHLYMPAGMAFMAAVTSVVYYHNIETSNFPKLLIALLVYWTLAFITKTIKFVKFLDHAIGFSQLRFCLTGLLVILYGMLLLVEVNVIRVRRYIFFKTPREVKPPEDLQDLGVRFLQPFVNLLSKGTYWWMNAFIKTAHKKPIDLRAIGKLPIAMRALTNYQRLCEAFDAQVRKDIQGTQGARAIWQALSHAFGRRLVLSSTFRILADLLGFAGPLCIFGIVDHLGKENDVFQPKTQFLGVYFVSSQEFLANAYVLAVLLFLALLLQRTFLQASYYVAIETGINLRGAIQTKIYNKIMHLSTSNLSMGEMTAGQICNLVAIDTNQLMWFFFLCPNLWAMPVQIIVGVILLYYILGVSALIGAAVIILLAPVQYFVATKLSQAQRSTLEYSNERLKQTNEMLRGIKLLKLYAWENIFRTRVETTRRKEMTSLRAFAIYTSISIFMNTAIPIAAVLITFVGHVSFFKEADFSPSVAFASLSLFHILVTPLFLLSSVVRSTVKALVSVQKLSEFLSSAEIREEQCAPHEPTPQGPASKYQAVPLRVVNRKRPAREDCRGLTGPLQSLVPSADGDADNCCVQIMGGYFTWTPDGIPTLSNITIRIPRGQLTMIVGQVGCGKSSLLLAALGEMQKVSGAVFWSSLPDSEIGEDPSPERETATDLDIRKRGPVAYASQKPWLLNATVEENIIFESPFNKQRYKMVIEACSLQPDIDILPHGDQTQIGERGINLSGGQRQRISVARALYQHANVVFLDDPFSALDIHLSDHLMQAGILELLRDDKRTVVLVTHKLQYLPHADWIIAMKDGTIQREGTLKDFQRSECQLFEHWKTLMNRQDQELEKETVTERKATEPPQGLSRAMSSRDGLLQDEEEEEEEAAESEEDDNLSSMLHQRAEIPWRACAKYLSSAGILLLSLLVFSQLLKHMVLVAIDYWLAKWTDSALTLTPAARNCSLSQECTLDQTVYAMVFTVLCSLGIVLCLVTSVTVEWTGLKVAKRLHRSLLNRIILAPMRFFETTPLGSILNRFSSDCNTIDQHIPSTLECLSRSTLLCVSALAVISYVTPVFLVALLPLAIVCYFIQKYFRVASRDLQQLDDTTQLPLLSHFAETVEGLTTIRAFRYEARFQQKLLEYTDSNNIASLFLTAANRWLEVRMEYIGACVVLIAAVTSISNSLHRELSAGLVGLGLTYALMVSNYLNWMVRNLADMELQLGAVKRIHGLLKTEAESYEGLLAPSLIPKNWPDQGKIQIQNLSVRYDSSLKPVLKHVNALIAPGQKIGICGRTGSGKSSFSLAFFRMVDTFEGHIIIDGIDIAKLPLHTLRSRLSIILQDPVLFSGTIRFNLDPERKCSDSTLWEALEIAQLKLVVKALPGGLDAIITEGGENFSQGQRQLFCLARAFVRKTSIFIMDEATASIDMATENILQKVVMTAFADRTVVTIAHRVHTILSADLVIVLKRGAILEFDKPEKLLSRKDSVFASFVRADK
T2 sequence (Q14654 whole entry partner, species assumed): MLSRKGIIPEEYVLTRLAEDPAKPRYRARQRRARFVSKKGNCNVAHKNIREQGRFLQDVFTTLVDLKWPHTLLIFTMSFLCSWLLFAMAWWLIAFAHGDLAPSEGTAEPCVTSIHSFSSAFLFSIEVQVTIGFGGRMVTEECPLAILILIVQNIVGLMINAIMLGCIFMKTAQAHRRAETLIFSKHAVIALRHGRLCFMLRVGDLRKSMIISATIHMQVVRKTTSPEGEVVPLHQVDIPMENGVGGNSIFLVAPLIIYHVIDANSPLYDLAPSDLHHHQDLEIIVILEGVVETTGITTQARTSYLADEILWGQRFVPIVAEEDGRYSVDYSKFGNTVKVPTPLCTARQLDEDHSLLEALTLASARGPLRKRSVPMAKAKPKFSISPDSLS

| SMILES | IC50 (Kir6.1/SUR2B; [2]) [nM] | also measured |
| --- | --- | --- |
| Cc1nc(-c2ccccc2F)sc1CNC(=O)Nc1cccs1 [compound 5] | 545 |  |
| Cc1nc(-c2cccs2)sc1CNC(=O)Nc1cccnc1 [compound 6] | 1620 | Kir6.1/SUR2B inhibition, SAR in words (Kir6.1/SUR2B): very weak |
| Cc1nc(-c2cccs2)sc1CNC(=O)Nc1ccncc1 [compound 7] | 12600 | Kir6.1/SUR2B inhibition, SAR in words (Kir6.1/SUR2B): very weak |
| O=C(NCc1cc(-c2ccncc2)n(C2CCCC2)n1)Nc1cccs1 [compound 8] | 527 |  |
| Cn1nc(CNC(=O)Nc2cccs2)cc1-c1ccncc1 [compound 9] | 6130 |  |
| Cn1nc(CNC(=O)Nc2cccc(C(F)(F)F)c2)cc1-c1ccncc1 [compound 10] | 857 |  |
| O=C(NCC1(c2ccc(F)cc2)CC1)Nc1cccs1 [compound 11] | 987 |  |
| Cn1nc(CNC(=O)Nc2cccs2)c2ccccc2c1=O [compound 12] | 780 |  |
| COc1ccc(Cl)cc1C(=O)NCCc1ccc(S(=O)(=O)NC(=O)NC2CCCCC2)cc1 [glibenclamide, reference compound] |  | IC50 (Kir6.1/SUR2B; transfected HEK-293 cells, pinacidil activation, read-out: Kir6.1/SUR2B IC50 (Fig. 4C)): 115 nM; ductus arteriosus vessel constriction ([1]; increasing concentrations, compound alone): constricted in a concentration-dependent manner; ductus arteriosus vessel constriction in the presence of pinacidil ([1]; with 10 µM pinacidil): substantially blunted vasoconstrictive effects |
| CC(N/C(=N\C#N)Nc1ccncc1)C(C)(C)C (centres unmarked) [pinacidil, reference compound] |  | effect on Kir6.2/SUR1 thallium flux (opening) (Kir6.2/SUR1): no effect |
